Experiment [1] concerns antibodies in sera from SARS patients (sera 1a, 1b, 2, 6, 37, 62, London, SARS-yellow, SARS-green). Format: binding, human. The arrangement: Binding of serum 6 to linear peptides of protein X1 of SARS-CoV Urbani / Binding of serum 37 to linear peptides of protein X1 of SARS-CoV Urbani / Binding of serum 6 to looped/cyclic peptide (PEPSCAN-ELISA) / Binding of serum 37 to looped/cyclic peptide (PEPSCAN-ELISA) / Binding of serum 37 to looped/cyclic peptides of protein X1 of SARS-CoV Urbani / Binding of serum 6 to linear peptides of protein X2 / Binding of serum 37 to linear peptides of protein X2 / Binding of serum 37 to looped/cyclic peptides of protein X2 of SARS-CoV Urbani / Binding of serum 6 to linear peptides of protein M of SARS-CoV Urbani / Binding of serum 37 to linear peptides of protein M of SARS-CoV Urbani / Binding of serum 6 to looped/cyclic peptides of protein M of SARS-CoV Urbani / Binding of serum 37 to looped/cyclic peptides of protein M of SARS-CoV Urbani / Binding of serum 6 to linear peptides of protein X3 of SARS-CoV Urbani / Binding of serum 37 to linear peptides of protein X3 of SARS-CoV Urbani / Binding of serum 37 to looped/cyclic peptides of protein X3 of SARS-CoV Urbani / Binding of serum 6 to linear peptides of protein X4 of SARS-CoV Urbani / Binding of serum 37 to linear peptides of protein X4 of SARS-CoV Urbani / Binding of serum 37 to looped/cyclic peptides of protein X4 of SARS-CoV Urbani / Binding of serum 6 to linear peptides of protein X5 of SARS-CoV Urbani / Binding of serum 37 to linear peptides of protein X5 of SARS-CoV Urbani / Binding of serum 37 to looped/cyclic peptides of protein X5 of SARS-CoV Urbani / Binding of serum 6 to linear peptides of protein N of SARS-CoV Urbani / Binding of serum 37 to linear peptides of protein N of SARS-CoV Urbani / Binding of serum 6 to linear peptide (PEPSCAN-ELISA) / Binding of serum 1a to looped/cyclic peptides of protein N of SARS-CoV Urbani / Binding of serum 1b to looped/cyclic peptides of protein N of SARS-CoV Urbani / Binding of serum 2 to looped/cyclic peptides of protein N of SARS-CoV Urbani / Binding of serum 6 to looped/cyclic peptides of protein N of SARS-CoV Urbani / Binding of serum 37 to looped/cyclic peptides of protein N of SARS-CoV Urbani / Binding of serum 62 to looped/cyclic peptides of protein N of SARS-CoV Urbani / Binding of serum London to looped/cyclic peptides of protein N of SARS-CoV Urbani / Binding of serum SARS-green to looped/cyclic peptides of protein N of SARS-CoV Urbani: unit not given here.

For experiment [2], the system named is control sera (pooled serum of ten healthy LUMC hospital workers; commercial negative donor pooled serum from the Dutch bloodbank). The class given is binding, human. The arrangement: Binding of Control serum LUMC to linear peptides / Binding of Control serum Blood-bank to linear peptides / Binding of Control serum LUMC to looped peptides / Binding of Control Serum Blood-Bank to Looped peptides / Binding of Control serum LUMC to linear peptides of the protein M of SARS-CoV Urbani / Binding of Control serum Blood-bank to linear peptides of the protein M of SARS-CoV Urbani / Binding of Control serum LUMC to looped peptides of the protein M of SARS-CoV Urbani / Binding of Control Serum Blood-Bank to Looped peptides of the protein M of SARS-CoV Urbani: unit not given here.

Experiment [3] deals with rabbit serum obtained by immunizing a rabbit with the SARS-CoV strain Frankfurt 1. The class given is binding. Details: Binding of a rabbit serum to linear peptides / Binding of a rabbit serum to looped peptides / Rabbit serum linear peptides / Rabbit serum looped peptides / Binding of a rabbit serum to linear peptides of protein N of SARS-CoV Urbani (Rabbit serum linear peptides) / Binding of a rabbit serum to looped/cyclic peptides of protein N of SARS-CoV Urbani (Rabbit serum looped peptides): unit not given here.

Regarding VVTEGDGISTPKLKE, in experiment [1], the “Binding of serum 1a to linear peptides of protein X1 of SARS-CoV Urbani” value is recorded as 0.5, the “Binding of serum 1a to looped/cyclic peptides of protein X1 of SARS-CoV Urbani” value is given as 0.3, the “Binding of serum 1b to linear peptides of protein X1 of SARS-CoV Urbani” value amounted to 0.4 and the “Binding of serum 1b to looped/cyclic peptides of protein X1 of SARS-CoV Urbani” value was 0.3. Besides, in experiment [1], the “Binding of serum 2 to linear peptides of protein X1 of SARS-CoV Urbani” value was 0.3, the “Binding of serum 2 to looped/cyclic peptides of protein X1 of SARS-CoV Urbani” value came out at 0.1, the “Binding of serum 6 to linear peptides of protein X1 of SARS-CoV Urbani” value was 0.2 and the “Binding of serum 6 to looped/cyclic peptides of protein X1 of SARS-CoV Urbani” value was 0.2. Besides, in experiment [1], the “Binding of serum 37 to linear peptides of protein X1 of SARS-CoV Urbani” value is 0.4, the “Binding of serum 37 to looped/cyclic peptides of protein X1 of SARS-CoV Urbani” value came to 0.3, the “Binding of serum 62 to linear peptides of protein X1 of SARS-CoV Urbani” value is reported as 0.3 and the “Binding of serum 62 to looped/cyclic peptides of protein X1 of SARS-CoV Urbani” value came to 0.3. In experiment [1], the “Binding of serum London to linear peptides of protein X1 of SARS-CoV Urbani” value was found to be 0.3, the “Binding of serum London to looped/cyclic peptides of protein X1 of SARS-CoV Urbani” value is recorded as 0.2, the “Binding of serum SARS-green to linear peptides of protein X1 of SARS-CoV Urbani” value stood at 0.1 and the “Binding of serum SARS-green to looped/cyclic peptides of protein X1 of SARS-CoV Urbani” value is 0.1. Besides, in experiment [1], the “Binding of serum SARS-yellow to linear peptides of protein X1 of SARS-CoV Urbani” value worked out at 0.1 and the “Binding of serum SARS-yellow to looped/cyclic peptides of protein X1 of SARS-CoV Urbani” value worked out at 0.2. Further, in experiment [2], the “Binding of Control Serum Blood-Bank to Looped peptides” value came to 0.3, the “Binding of Control serum Blood-bank to linear peptides” value is 0.3, the “Binding of Control serum LUMC to linear peptides” value was 0.2 and the “Binding of Control serum LUMC to looped peptides” value is given as 0.3. Also, in experiment [3], the “Binding of a rabbit serum to linear peptides” value stood at 0.1 and the “Binding of a rabbit serum to looped peptides” value turned out to be 0.4.

Turning to VYYQLESTQITTDTG, in experiment [1], the “Binding of serum 1a to linear peptides of protein X1 of SARS-CoV Urbani” value is on record as 0.6, the “Binding of serum 1a to looped/cyclic peptides of protein X1 of SARS-CoV Urbani” value is 0.4, the “Binding of serum 1b to linear peptides of protein X1 of SARS-CoV Urbani” value amounted to 0.5 and the “Binding of serum 1b to looped/cyclic peptides of protein X1 of SARS-CoV Urbani” value amounted to 0.2. Also, in experiment [1], the “Binding of serum 2 to linear peptides of protein X1 of SARS-CoV Urbani” value amounted to 0.4, the “Binding of serum 2 to looped/cyclic peptides of protein X1 of SARS-CoV Urbani” value is 0.1, the “Binding of serum 6 to linear peptides of protein X1 of SARS-CoV Urbani” value is recorded as 0.4 and the “Binding of serum 6 to looped/cyclic peptides of protein X1 of SARS-CoV Urbani” value amounted to 0.1. Further, in experiment [1], the “Binding of serum 37 to linear peptides of protein X1 of SARS-CoV Urbani” value is given as 0.6, the “Binding of serum 37 to looped/cyclic peptides of protein X1 of SARS-CoV Urbani” value was found to be 0.4, the “Binding of serum 62 to linear peptides of protein X1 of SARS-CoV Urbani” value was 0.5 and the “Binding of serum 62 to looped/cyclic peptides of protein X1 of SARS-CoV Urbani” value is listed as 0.3. For the same sequence, in experiment [1], the “Binding of serum London to linear peptides of protein X1 of SARS-CoV Urbani” value was found to be 0.2, the “Binding of serum London to looped/cyclic peptides of protein X1 of SARS-CoV Urbani” value is listed as 0.2, the “Binding of serum SARS-green to linear peptides of protein X1 of SARS-CoV Urbani” value is 0.2 and the “Binding of serum SARS-green to looped/cyclic peptides of protein X1 of SARS-CoV Urbani” value is given as 0.2. Besides, in experiment [1], the “Binding of serum SARS-yellow to linear peptides of protein X1 of SARS-CoV Urbani” value is 0.3 and the “Binding of serum SARS-yellow to looped/cyclic peptides of protein X1 of SARS-CoV Urbani” value is reported as 0.1. In addition, in experiment [2], the “Binding of Control Serum Blood-Bank to Looped peptides” value was 0.3, the “Binding of Control serum Blood-bank to linear peptides” value was 0.4, the “Binding of Control serum LUMC to linear peptides” value is recorded as 0.4 and the “Binding of Control serum LUMC to looped peptides” value is reported as 0.3. Further, in experiment [3], the “Binding of a rabbit serum to linear peptides” value is given as 0.1 and the “Binding of a rabbit serum to looped peptides” value stood at 0.5.

WIMLLQFAYSNRNRF: in experiment [1], the “Binding of serum 1a to linear peptides of protein M of SARS-CoV Urbani” value was found to be 0.6, the “Binding of serum 1a to looped/cyclic peptides of protein M of SARS-CoV Urbani” value came out at 0.7, the “Binding of serum 1b to linear peptides of protein M of SARS-CoV Urbani” value came to 0.5 and the “Binding of serum 1b to looped/cyclic peptides of protein M of SARS-CoV Urbani” value is reported as 0.6. Also, in experiment [1], the “Binding of serum 2 to linear peptides of protein M of SARS-CoV Urbani” value is 0.5, the “Binding of serum 2 to looped/cyclic peptides of protein M of SARS-CoV Urbani” value worked out at 0.4, the “Binding of serum 6 to linear peptides of protein M of SARS-CoV Urbani” value came out at 0.3 and the “Binding of serum 6 to looped/cyclic peptides of protein M of SARS-CoV Urbani” value is reported as 0.8. In experiment [1], the “Binding of serum 37 to linear peptides of protein M of SARS-CoV Urbani” value worked out at 0.7, the “Binding of serum 37 to looped/cyclic peptides of protein M of SARS-CoV Urbani” value stood at 0.4, the “Binding of serum 62 to linear peptides of protein M of SARS-CoV Urbani” value was 0.7 and the “Binding of serum 62 to looped/cyclic peptides of protein M of SARS-CoV Urbani” value stood at 0.6. In experiment [1], the “Binding of serum London to linear peptides of protein M of SARS-CoV Urbani” value stood at 0.3, the “Binding of serum London to looped/cyclic peptides of protein M of SARS-CoV Urbani” value is 0.2, the “Binding of serum SARS-green to linear peptides of protein M of SARS-CoV Urbani” value is 0.3 and the “Binding of serum SARS-green to looped/cyclic peptides of protein M of SARS-CoV Urbani” value is given as 0.2. In addition, in experiment [1], the “Binding of serum SARS-yellow to linear peptides of protein M of SARS-CoV Urbani” value stood at 0.1 and the “Binding of serum SARS-yellow to looped/cyclic peptides of protein M of SARS-CoV Urbani” value was 0.3. In experiment [2], the “Binding of Control Serum Blood-Bank to Looped peptides of the protein M of SARS-CoV Urbani” value worked out at 0.7, the “Binding of Control serum Blood-bank to linear peptides of the protein M of SARS-CoV Urbani” value is on record as 0.7, the “Binding of Control serum LUMC to linear peptides of the protein M of SARS-CoV Urbani” value is 0.3 and the “Binding of Control serum LUMC to looped peptides of the protein M of SARS-CoV Urbani” value amounted to 0.7. Further, in experiment [3], the “Rabbit serum linear peptides” value came out at 0.8 and the “Rabbit serum looped peptides” value was determined as 0.3.

As for WIQFMMSRRRLLACL, in experiment [1], the “Binding of serum 1a to linear peptides of protein X2” value turned out to be 0.6, the “Binding of serum 1a to looped/cyclic peptides of protein X2 of SARS-CoV Urbani” value turned out to be 0.4, the “Binding of serum 1b to linear peptides of protein X2” value is 0.4 and the “Binding of serum 1b to looped/cyclic peptides of protein X2 of SARS-CoV Urbani” value was determined as 0.3. Further, in experiment [1], the “Binding of serum 2 to linear peptides of protein X2” value is 0.4, the “Binding of serum 2 to looped/cyclic peptides of protein X2 of SARS-CoV Urbani” value was determined as 0.1, the “Binding of serum 6 to linear peptides of protein X2” value turned out to be 0.5 and the “Binding of serum 6 to looped/cyclic peptides of protein X2 of SARS-CoV Urbani” value is given as 0.3. Also, in experiment [1], the “Binding of serum 37 to linear peptides of protein X2” value was determined as 0.5, the “Binding of serum 37 to looped/cyclic peptides of protein X2 of SARS-CoV Urbani” value stood at 0.3, the “Binding of serum 62 to linear peptides of protein X2” value is given as 0.6 and the “Binding of serum 62 to looped/cyclic peptides of protein X2 of SARS-CoV Urbani” value amounted to 0.3. Also, in experiment [1], the “Binding of serum London to linear peptides of protein X2” value was determined as 0.5, the “Binding of serum London to looped/cyclic peptides of protein X2 of SARS-CoV Urbani” value worked out at 0.3, the “Binding of serum SARS-green to linear peptides of protein X2” value stood at 0.5 and the “Binding of serum SARS-green to looped/cyclic peptides of protein X2 of SARS-CoV Urbani” value is recorded as 0.2. In addition, in experiment [1], the “Binding of serum SARS-yellow to linear peptides of protein X2” value is on record as 0.7 and the “Binding of serum SARS-yellow to looped/cyclic peptides of protein X2 of SARS-CoV Urbani” value is reported as 0.4. In experiment [2], the “Binding of Control Serum Blood-Bank to Looped peptides” value is given as 0.3, the “Binding of Control serum Blood-bank to linear peptides” value was found to be 0.6, the “Binding of Control serum LUMC to linear peptides” value is recorded as 0.4 and the “Binding of Control serum LUMC to looped peptides” value is 0.3. Besides, in experiment [3], the “Binding of a rabbit serum to linear peptides” value came to 0.5 and the “Binding of a rabbit serum to looped peptides” value was 1.3.

(Values after US20070128217A1 (priority 2003, published 2007).)
